Here are results for 8 compounds from ChEMBL document CHEMBL5465560, “Selectivity Literature for EUbOPEN Chemogenomic Library” (2024).

The target of experiment [1] is T1, Dual specificity mitogen-activated protein kinase kinase 7 (Homo sapiens) (UniProt O14733).
T1 sequence (whole entry): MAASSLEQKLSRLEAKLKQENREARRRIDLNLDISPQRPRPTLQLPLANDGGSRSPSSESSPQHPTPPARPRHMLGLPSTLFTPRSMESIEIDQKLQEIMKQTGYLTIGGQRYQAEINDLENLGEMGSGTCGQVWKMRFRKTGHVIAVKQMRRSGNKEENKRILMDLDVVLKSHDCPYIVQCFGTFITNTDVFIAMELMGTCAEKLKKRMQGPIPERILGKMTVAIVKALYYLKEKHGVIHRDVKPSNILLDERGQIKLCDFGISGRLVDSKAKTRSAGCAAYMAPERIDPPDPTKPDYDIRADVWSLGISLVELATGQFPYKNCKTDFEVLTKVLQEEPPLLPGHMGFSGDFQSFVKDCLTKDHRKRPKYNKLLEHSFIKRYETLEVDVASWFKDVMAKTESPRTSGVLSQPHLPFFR
The experiment can be described thus: Selectivity interaction (KinomeScan (DiscoverX)) EUB0000607a MAP2K7. The settings on record: at 10 µM.

Experiment [2] deals with Phosphatidylinositol 4-kinase beta (Homo sapiens, UniProt Q9UBF8). The experiment can be described thus: Selectivity interaction (KinomeScan (DiscoverX)) EUB0000607a PI4KB. The settings on record: at 10 µM.
Chain of Phosphatidylinositol 4-kinase beta (Q9UBF8 2-816 limits assumed): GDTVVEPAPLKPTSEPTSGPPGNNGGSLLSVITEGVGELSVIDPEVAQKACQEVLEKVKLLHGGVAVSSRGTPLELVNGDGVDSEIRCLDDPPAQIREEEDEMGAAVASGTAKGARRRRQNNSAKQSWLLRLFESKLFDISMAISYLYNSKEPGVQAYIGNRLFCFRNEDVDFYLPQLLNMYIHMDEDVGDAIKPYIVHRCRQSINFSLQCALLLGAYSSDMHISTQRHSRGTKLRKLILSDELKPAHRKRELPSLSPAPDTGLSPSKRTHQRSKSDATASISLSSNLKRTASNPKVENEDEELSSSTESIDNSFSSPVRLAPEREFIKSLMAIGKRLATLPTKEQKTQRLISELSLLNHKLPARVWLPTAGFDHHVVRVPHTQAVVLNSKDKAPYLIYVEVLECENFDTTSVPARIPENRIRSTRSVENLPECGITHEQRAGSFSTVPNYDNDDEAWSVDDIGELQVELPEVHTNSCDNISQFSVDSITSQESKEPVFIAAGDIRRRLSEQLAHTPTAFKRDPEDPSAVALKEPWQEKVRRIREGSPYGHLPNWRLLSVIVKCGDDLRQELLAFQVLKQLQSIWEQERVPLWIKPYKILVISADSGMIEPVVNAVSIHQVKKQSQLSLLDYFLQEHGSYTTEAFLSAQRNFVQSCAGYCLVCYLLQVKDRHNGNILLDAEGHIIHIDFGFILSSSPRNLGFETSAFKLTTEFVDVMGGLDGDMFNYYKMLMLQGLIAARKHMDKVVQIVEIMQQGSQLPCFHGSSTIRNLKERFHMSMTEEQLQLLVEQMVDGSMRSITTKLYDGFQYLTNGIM
Experiment [3] concerns the target Fibroblast growth factor receptor 4 (Homo sapiens, UniProt P22455). The experiment can be described thus: Selectivity interaction (KinomeScan (DiscoverX)) EUB0000045b FGFR4.
Experiment [4] has as its target Tau-tubulin kinase 1 (Homo sapiens) (UniProt Q5TCY1). The experiment can be described thus: Selectivity interaction (ProQinase) EUB0000171b TTBK1.
Experiment [5] concerns the target Mitogen-activated protein kinase 4 (Homo sapiens) (UniProt P31152). The experiment can be described thus: Selectivity interaction (KinomeScan (DiscoverX)) EUB0000618a MAPK4. Conditions: at 10 µM.
For experiment [6], the system named is Tyrosine-protein kinase ABL1 (Homo sapiens), P00519 [F317I]. The experiment can be described thus: (§1) Selectivity interaction (KinomeScan (DiscoverX)) EUB0000092b ABL1. The settings on record: at 10 µM.
Experiment [7] has as its system Tyrosine-protein kinase ABL1 (Homo sapiens), P00519 [F317L]. The description is as §1. Conditions: at 10 µM.
In experiment [8] the test system is Tyrosine-protein kinase ABL1 (Homo sapiens), P00519 [H396P]. The experiment is described as §1. The settings on record: at 10 µM.
Experiment [9] has as its system Tyrosine-protein kinase ABL1 (Homo sapiens), P00519 [M351T]. The experiment is described as §1. The settings on record: at 10 µM.
The subject of experiment [10] is Tyrosine-protein kinase ABL1 (Homo sapiens), P00519 [Q252H]. The experiment is described as §1. Conditions: at 10 µM.
The test system of experiment [11] is Tyrosine-protein kinase ABL1 (Homo sapiens), P00519 [T315I]. Described as §1. Conditions: at 10 µM.
For experiment [12], the target named is Tyrosine-protein kinase ABL1 (Homo sapiens, UniProt P00519). The experiment is described as §1. Conditions: at 10 µM.
For experiment [13], the target named is Death-associated protein kinase 1 (Homo sapiens, UniProt P53355). As to the kind of experiment: Selectivity interaction (KinomeScan (DiscoverX)) EUB0000092b DAPK1. Conditions: at 10 µM.
The target of experiment [14] is STE20/SPS1-related proline-alanine-rich protein kinase (Homo sapiens) (UniProt Q9UEW8). As to the kind of experiment: Selectivity interaction (KinomeScan (DiscoverX)) EUB0000092b STK39. Conditions: at 10 µM.
For another experiment, the target named is Histamine H1 receptor (Homo sapiens, UniProt P35367). As to the kind of experiment: Selectivity interaction (GPCR panel (PDSP screen)) EUB0001079a HRH1. The settings on record: at 10 µM.
Chain of Histamine H1 receptor (P35367 whole entry): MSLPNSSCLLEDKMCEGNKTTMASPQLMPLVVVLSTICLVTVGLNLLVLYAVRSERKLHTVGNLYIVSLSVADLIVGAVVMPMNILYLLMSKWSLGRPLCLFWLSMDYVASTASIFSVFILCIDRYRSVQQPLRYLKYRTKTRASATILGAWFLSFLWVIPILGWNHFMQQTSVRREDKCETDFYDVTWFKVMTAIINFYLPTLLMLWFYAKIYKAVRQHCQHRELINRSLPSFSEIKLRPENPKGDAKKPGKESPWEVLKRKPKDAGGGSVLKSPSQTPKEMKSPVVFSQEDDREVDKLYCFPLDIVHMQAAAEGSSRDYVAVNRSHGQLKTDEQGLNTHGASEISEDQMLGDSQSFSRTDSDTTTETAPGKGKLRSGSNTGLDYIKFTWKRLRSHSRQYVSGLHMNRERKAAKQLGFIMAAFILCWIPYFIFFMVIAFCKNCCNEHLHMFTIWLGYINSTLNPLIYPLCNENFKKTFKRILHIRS
The target in experiment [15] is T2, Dual specificity mitogen-activated protein kinase kinase 5 (Homo sapiens) (UniProt Q13163).
T2 sequence (whole entry): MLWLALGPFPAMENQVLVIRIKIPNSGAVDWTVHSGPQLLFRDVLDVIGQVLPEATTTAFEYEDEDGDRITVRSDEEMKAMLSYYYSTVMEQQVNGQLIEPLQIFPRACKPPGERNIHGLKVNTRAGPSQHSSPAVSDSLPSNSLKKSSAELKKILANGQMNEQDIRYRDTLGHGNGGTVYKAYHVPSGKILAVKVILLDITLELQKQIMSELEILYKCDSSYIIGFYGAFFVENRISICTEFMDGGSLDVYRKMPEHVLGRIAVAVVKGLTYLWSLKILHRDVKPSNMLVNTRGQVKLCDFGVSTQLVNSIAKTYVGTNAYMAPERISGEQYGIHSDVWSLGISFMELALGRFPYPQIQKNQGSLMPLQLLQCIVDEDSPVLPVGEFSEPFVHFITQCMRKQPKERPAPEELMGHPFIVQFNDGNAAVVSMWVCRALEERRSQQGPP
The experiment can be described thus: Selectivity interaction (KinomeScan (DiscoverX)) EUB0001079a MAP2K5. Conditions: at 1 µM.

Experiment [16] has as its target T3, Serine/threonine-protein kinase 4 (Homo sapiens) (UniProt Q13043).
T3 sequence (whole entry): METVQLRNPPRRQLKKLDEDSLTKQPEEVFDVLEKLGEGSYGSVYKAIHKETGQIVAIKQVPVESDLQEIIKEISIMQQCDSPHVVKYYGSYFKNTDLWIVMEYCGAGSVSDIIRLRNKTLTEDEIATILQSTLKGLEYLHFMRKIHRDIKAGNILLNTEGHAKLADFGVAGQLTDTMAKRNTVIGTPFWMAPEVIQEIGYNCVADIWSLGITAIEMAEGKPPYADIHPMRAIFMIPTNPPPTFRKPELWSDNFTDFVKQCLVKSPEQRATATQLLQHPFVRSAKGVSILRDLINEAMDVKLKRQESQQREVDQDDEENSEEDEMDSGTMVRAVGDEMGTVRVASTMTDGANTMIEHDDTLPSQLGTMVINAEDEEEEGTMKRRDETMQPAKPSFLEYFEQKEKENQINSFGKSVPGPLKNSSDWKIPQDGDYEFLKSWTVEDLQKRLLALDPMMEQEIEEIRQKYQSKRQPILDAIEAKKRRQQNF
As to the kind of experiment: Selectivity interaction (KinomeScan (DiscoverX)) EUB0001079a STK4. The settings on record: at 1 µM.

The test system of experiment [17] is eIF-2-alpha kinase GCN2 (Homo sapiens), Q9P2K8 [S808G]. As to the kind of experiment: Selectivity interaction (KinomeScan (DiscoverX)) EUB0000229b EIF2AK4. Conditions: at 10 µM.
Experiment [18] concerns the target Platelet-derived growth factor receptor beta (Homo sapiens, UniProt P09619). As to the kind of experiment: Selectivity interaction (KinomeScan (DiscoverX)) EUB0000229b PDGFRB. The settings on record: at 10 µM.
In experiment [19] the target is Serine/threonine-protein kinase PLK1 (Homo sapiens, UniProt P53350). The experiment can be described thus: Selectivity interaction (Kinase panel (KiNativ target engagement assay in Jurkat cells)) EUB0001635a PLK1. In kind it is cell-based. Conditions: Selectivity number of off-targets 0.0, Selectivity number of targets 233.0, Source Knowledge https://www.sciencedirect.com/science/article/pii/S2451945619300674?via%3Dihub, at 1 µM.

Chain of Tau-tubulin kinase 1 (Homo sapiens) (Q5TCY1 whole entry): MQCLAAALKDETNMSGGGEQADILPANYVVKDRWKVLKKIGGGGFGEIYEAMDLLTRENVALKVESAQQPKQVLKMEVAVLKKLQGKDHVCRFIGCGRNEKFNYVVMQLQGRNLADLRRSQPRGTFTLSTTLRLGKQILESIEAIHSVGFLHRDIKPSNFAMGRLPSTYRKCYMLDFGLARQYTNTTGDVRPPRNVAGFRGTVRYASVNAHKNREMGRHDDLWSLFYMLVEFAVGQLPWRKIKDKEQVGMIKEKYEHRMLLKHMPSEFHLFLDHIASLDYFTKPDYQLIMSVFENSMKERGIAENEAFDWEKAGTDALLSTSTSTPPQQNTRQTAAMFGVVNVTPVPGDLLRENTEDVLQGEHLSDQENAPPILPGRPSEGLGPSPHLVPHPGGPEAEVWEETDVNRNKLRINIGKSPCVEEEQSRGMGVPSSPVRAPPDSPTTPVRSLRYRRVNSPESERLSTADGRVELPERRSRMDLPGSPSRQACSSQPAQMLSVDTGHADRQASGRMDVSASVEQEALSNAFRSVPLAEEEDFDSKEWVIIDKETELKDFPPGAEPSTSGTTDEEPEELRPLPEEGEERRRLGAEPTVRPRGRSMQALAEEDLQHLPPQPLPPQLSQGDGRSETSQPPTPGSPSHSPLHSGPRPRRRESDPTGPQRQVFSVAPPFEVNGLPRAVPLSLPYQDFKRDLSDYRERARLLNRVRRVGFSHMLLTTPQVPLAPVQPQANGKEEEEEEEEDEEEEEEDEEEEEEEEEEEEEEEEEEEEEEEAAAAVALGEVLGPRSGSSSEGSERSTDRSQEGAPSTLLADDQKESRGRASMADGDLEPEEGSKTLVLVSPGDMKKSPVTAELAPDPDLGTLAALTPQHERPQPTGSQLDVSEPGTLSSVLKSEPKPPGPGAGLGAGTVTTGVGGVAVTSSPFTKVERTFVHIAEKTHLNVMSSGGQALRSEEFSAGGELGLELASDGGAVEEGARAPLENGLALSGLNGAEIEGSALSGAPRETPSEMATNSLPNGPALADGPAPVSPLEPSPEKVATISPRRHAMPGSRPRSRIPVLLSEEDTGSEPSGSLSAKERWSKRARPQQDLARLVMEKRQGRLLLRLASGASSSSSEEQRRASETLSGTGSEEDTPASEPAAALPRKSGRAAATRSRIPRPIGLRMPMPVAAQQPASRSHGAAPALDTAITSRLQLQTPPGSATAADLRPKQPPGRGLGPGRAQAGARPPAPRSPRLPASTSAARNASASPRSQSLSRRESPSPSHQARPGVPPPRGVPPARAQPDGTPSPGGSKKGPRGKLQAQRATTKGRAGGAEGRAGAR
Chain of Fibroblast growth factor receptor 4 (P22455 22-802 limits assumed): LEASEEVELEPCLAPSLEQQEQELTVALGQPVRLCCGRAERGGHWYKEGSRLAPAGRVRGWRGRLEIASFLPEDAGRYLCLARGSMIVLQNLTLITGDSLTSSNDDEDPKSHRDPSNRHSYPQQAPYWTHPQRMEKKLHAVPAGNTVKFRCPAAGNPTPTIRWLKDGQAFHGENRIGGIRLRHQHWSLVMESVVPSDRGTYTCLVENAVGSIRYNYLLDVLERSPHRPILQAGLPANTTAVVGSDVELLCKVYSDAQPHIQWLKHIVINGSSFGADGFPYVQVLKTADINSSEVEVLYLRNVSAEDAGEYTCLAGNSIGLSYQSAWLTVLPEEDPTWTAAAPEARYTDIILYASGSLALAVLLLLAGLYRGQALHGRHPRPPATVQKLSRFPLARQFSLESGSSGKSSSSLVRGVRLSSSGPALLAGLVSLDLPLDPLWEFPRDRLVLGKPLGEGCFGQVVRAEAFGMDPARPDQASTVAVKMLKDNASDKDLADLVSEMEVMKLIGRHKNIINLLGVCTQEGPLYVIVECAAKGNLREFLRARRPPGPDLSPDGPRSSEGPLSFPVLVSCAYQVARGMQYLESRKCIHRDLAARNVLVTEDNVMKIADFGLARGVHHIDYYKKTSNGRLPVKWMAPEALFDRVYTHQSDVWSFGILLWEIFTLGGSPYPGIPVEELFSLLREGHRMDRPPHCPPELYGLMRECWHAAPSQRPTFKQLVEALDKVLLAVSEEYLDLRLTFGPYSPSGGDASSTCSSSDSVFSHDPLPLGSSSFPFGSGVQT
Chain of Platelet-derived growth factor receptor beta (P09619 whole entry): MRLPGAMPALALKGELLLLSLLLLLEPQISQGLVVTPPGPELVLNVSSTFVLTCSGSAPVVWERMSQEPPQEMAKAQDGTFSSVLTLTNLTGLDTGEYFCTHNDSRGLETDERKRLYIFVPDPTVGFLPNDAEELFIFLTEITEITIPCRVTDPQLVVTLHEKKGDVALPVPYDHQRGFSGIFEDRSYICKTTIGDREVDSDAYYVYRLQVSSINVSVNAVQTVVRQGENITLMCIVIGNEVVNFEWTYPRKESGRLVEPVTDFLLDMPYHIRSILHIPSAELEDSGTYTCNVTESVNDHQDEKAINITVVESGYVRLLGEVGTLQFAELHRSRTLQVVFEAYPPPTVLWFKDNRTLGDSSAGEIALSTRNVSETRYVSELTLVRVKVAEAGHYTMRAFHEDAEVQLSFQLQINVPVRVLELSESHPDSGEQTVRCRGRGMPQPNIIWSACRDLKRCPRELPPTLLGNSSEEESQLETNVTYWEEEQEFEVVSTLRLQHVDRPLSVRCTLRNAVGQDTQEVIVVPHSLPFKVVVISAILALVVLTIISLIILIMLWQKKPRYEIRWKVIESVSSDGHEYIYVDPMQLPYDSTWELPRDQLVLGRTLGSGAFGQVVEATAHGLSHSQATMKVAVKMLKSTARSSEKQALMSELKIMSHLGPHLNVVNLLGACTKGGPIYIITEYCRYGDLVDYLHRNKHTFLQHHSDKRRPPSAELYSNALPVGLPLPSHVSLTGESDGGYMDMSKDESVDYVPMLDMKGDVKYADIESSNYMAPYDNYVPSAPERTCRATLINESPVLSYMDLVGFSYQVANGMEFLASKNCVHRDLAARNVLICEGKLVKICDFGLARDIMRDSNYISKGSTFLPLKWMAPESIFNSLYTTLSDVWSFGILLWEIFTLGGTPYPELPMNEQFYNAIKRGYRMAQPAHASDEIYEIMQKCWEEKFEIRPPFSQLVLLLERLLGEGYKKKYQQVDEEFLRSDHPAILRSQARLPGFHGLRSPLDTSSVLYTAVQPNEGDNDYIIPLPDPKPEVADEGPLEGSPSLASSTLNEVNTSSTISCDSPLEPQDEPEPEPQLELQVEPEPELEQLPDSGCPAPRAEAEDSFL
Chain of Mitogen-activated protein kinase 4 (Homo sapiens) (P31152 whole entry): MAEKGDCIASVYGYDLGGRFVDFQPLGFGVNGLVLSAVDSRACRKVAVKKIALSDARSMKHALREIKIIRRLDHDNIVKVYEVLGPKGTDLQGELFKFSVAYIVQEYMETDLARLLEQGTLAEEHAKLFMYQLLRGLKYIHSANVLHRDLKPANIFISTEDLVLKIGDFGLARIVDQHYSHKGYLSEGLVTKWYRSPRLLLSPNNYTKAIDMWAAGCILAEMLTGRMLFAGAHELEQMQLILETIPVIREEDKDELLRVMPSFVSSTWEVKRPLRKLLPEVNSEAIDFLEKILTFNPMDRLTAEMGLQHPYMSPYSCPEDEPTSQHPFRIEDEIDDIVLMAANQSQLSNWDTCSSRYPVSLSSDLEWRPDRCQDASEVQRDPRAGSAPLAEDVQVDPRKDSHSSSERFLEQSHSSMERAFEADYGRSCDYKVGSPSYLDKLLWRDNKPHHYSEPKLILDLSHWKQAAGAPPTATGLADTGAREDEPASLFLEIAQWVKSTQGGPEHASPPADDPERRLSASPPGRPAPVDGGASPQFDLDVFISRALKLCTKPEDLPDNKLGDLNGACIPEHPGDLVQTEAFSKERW

For `CNC(=O)Nc1ccc(-c2nc(N3CC4CCC(C3)O4)c3cnn(C4CCC5(CC4)OCCO5)c3n2)cc1`, the % of control in experiment [1] and in experiment [2] was 100% each time.

As to `C=CC(=O)Nc1cc(-n2c(=O)ccc3cnc4ccc(-c5ccc(NS(C)(=O)=O)cc5)cc4c32)ccc1C`, the % of control came to 100% in [3] (at 1 µM) and 84% in experiment [3] (at 10 µM).

As for `C=CC(=O)Nc1cccc(C(=O)Nc2ccc(Nc3cc(-c4[nH]c(SC)nc4C)ccn3)cc2)c1`, the % of control came to 102% in experiment [4] (at 1 µM) and 106% in experiment [4] (at 5 µM).

For the compound `O[C@H]1CC[C@H](Nc2ncc3nc(Nc4c(F)cc(F)cc4F)n([C@H]4CCOC4)c3n2)CC1`, the % of control in experiment [5] was 42%.

Take `CCC(=O)N1CCN(c2ccc(-n3c(=O)ccc4cnc5ccc(-c6cnc7ccccc7c6)cc5c43)cc2C(F)(F)F)CC1`: the % of control is 100% in [6]; 100% in experiment [7]; 68% in [8]; 100% in [9]; 89% in experiment [10]; 100% in [11]. The values for the % of control in experiment [12], in experiment [13] and in experiment [14] were 60%, 96% and 100%, respectively.

At Histamine H1 receptor, `Nc1cnc(N2CCc3cc(S(=O)(=O)Nc4c(F)cc(Cl)cc4F)cc(N4CCCC4=O)c32)nc1` [TP-020n] came in with a % of inhibition of 8.19%. Also, the figures for the % of control in [15] and in experiment [16] were 84% and 100%, respectively.

Turning to `COc1cc(N(C)c2ccnc3ccc(C(F)(F)F)cc23)cc(OC)c1OC`, the results for the % binding in experiment [17] and in [18] were 100% and 98%, respectively.

`C=CC(=O)Nc1ccc(C(=O)Nc2[nH]nc3c2CN(C(=O)N[C@H](CN(C)C)c2ccccc2)C3(C)C)cc1` displayed a % of engagement in experiment [19] of 8.1%.
